Values quoted from earlier work in patent publication US20090012088A1 (priority 2005, published 2009).

Tests used:
[1] = tested on: human neuroblastoma cells; conditions: cited from earlier work
[2] = tested on: rat model of focal cerebral ischemia; conditions: cited from earlier work
[3] = tested on: 34I cells; conditions: cited from earlier work
[4] = target: T1, PARG (Homo sapiens, UniProt Q86W56); conditions: tannins; read-out: in vitro IC50 for PARG; cited from earlier work
[5] = target: T1, PARG; conditions: cited from earlier work
[6] = target: PARG (Bos taurus, UniProt O02776); conditions: cited from earlier work
Chain of PARG (Bos taurus, UniProt O02776) (O02776 whole entry): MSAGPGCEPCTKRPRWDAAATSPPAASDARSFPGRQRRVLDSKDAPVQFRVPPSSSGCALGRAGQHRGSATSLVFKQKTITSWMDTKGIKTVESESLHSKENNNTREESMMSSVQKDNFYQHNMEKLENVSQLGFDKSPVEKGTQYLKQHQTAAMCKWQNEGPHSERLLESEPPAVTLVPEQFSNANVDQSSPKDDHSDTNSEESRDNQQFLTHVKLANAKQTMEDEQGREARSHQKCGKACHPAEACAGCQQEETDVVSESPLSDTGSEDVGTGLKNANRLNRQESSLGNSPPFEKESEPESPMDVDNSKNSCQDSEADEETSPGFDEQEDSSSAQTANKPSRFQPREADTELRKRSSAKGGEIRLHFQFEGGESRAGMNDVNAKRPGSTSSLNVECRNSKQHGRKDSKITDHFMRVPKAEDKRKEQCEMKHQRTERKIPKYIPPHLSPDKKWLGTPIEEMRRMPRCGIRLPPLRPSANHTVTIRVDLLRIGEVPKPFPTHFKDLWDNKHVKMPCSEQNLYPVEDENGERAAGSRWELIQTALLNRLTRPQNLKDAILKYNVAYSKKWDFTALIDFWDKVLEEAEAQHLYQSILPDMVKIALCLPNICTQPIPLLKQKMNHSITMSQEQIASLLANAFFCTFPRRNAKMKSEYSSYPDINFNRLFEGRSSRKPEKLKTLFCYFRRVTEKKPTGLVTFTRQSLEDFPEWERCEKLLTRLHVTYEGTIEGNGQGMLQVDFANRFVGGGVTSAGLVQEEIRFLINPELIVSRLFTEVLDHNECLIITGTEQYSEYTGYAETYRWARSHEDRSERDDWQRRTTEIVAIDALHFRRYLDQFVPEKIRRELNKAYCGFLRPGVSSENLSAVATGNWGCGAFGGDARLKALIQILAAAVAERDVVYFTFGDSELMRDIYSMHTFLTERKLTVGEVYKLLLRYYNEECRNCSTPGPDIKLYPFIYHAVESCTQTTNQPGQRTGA

T1 sequence (Q86W56 whole entry, species assumed): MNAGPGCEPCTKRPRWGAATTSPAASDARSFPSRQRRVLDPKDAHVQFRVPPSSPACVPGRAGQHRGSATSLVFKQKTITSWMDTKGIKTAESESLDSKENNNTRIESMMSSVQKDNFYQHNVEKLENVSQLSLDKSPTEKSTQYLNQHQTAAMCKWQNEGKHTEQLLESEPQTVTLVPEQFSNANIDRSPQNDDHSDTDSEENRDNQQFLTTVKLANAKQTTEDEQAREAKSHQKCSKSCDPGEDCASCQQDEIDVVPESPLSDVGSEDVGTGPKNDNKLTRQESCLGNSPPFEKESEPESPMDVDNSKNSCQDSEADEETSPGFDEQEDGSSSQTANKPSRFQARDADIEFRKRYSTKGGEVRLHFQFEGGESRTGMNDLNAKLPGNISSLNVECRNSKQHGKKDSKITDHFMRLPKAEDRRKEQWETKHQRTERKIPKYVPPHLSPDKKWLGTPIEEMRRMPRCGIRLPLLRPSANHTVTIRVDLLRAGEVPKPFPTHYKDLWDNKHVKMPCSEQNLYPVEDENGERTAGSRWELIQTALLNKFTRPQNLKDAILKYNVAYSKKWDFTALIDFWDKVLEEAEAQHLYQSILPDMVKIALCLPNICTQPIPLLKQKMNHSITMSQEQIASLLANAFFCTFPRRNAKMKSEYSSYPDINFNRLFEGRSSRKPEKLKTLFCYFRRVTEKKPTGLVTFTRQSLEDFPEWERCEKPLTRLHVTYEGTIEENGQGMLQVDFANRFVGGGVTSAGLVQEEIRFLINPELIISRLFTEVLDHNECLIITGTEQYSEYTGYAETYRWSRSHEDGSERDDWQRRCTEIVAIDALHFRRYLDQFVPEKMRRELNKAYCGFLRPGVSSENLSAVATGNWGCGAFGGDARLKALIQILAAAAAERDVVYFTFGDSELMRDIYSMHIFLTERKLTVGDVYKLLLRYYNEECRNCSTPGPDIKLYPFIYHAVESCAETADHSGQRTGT

## C=CCN1CCc2nc(N)sc2CC1 [talipexole]
[1]
  Concentration required for protection: 1 mM

## O=C(NCCCc1ccccc1)c1ccc2c(c1)C(=O)c1cc(C(=O)NCCCc3ccccc3)ccc1-2 [GPI 16552, 2,7-Bis[N-(3-phenyl-propyl)carbamoyl]-9-Oxo-9H-fluorene]
[2]; 30-minute pre-ischemia or 1- or 2-hour post-ischemia treatment
  Reduction of total infarct volume: 47-53%
[2]; rat, in vivo
  Protection in cortical areas: 43-59%
  Protection in subcortical areas: 28-40%

## O=C(OC[C@H]1O[C@@H](OC(=O)c2cc(O)c(O)c(O)c2)[C@@H]2OC(=O)c3cc(O)c(O)c(O)c3-c3c(cc(O)c(O)c3O)C(=O)O[C@H]2[C@@H]1OC(=O)c1cc(O)c(O)c(O)c1Oc1cc2c(c(O)c1O)-c1c(cc(O)c(O)c1O)C(=O)O[C@H]1[C@@H]3OC(=O)c4cc(Oc5c(C(=O)O[C@H]6[C@@H]7OC(=O)c8cc(O)c(O)c(O)c8-c8c(cc(O)c(O)c8O)C(=O)O[C@H]7[C@H](OC(=O)c7cc(O)c(O)c(O)c7)O[C@@H]6COC(=O)c6cc(O)c(O)c(O)c6)cc(O)c(O)c5O)c(O)c(O)c4-c4c(cc(O)c(O)c4O)C(=O)O[C@H]3[C@H](OC(=O)c3cc(O)c(O)c(O)c3)O[C@@H]1COC2=O)c1cc(O)c(O)c(O)c1 [nobotanin E]
[3]
  Inhibition of PAR catabolism in intact cells: little inhibitory effect

## nobotanin B
[4]
  IC50: 4.8 µM
[3]
  Inhibition of PAR catabolism in intact cells: concentration-dependent inhibition of PAR catabolism

## CCC(C)CC1CCC(O)(C(C)(O)C(=O)NC2C(=O)N3NCCCC3C(=O)N(O)C(C)C(=O)NCC(=O)N3NCCCC3C(=O)N(O)C(C)C(=O)OC2C(C)C)OC1C (stereo not shown) [PD 124,966]
[5]
  IC50 for PARG: 40 µg/mL

## adenosine diphosphate (hydroxymethyl)pyrrolidinediol [ADP-HPD]
[6]
  IC50 lower than that of ADP-ribose: 1000 fold

## O=C(OCC1OC(OC(=O)c2cc(O)c(O)c(O)c2)C2OC(=O)c3cc(O)c(O)c(O)c3-c3c(cc(O)c(O)c3O)C(=O)OC2C1OC(=O)c1cc(O)c(O)c(O)c1Oc1cc2c(c(O)c1O)-c1c(cc(O)c(O)c1O)C(=O)OC1C(COC2=O)OC(OC(=O)c2cc(O)c(O)c(O)c2)C2OC(=O)c3cc(O)c(O)c(O)c3-c3c(cc(Oc4c(C(=O)OC5C(COC(=O)c6cc(O)c(O)c(O)c6)OC(OC(=O)c6cc(O)c(O)c(O)c6)C6OC(=O)c7cc(O)c(O)c(O)c7-c7c(cc(Oc8c(C(=O)OC9OC%10COC(=O)c%11cc(O)c(O)c(O)c%11-c%11c(cc(O)c(O)c%11O)C(=O)OC%10C%10OC(=O)c%11cc(O)c(O)c(O)c%11-c%11c(cc(O)c(O)c%11O)C(=O)OC9%10)cc(O)c(O)c8O)c(O)c7O)C(=O)OC56)cc(O)c(O)c4O)c(O)c3O)C(=O)OC12)c1cc(O)c(O)c(O)c1 (stereo not shown) [nobotanin K]
[4]
  IC50: 0.44 µM
[3]
  Inhibition of PAR catabolism in intact cells: little inhibitory effect

## pargamicin
[5]
  IC50 for PARG: 28 µg/mL

## Nc1ncnc2c1ncn2[C@@H]1O[C@H](COP(=O)(O)OP(=O)(O)OC[C@H]2OC(O)[C@H](O)[C@@H]2O)[C@@H](O)[C@H]1O (stereo partly shown) [ADP-ribose]
[6]; substrate analogues, FIG. 9
  IC50: 120 µM
